Measured values published in US9061016B2, “Aqueous solution comprising 3-quinuclidinones for the treatment hyperproliferative, autoimmune and heart disease” (APREA AB, priority 2010, dated 2015).

Legend:
[1] = Solubility and pH of APR-246 in water solutions; assay type: physicochemical
SaOS-2 = experiment: Effect of APR-246 on cell viability in cancer cell lines; assay type: cell-based; details: Homo sapiens, Osteosarcoma SaOS-2, mean±SD
Procedure: (§1) The therapeutic activity of the compound 2-(hydroxymethyl)-2-(methoxymethyl)-quinuclidin-3-one (herein also referred to as APR-246) in the treatment of various cancers has been shown by in vitro assays using various cancer cell lines, cf. Table 2, wherein the IC50 of APR-246 in various types of cancerous cells is shown.
(§2) In Table 2, the results are shown as mean±SD; the IC50 values are calculated as the average of the IC50 values in the individual experiments.

22Rv1 = experiment: as above; assay type: cell-based; details: Homo sapiens, Prostate carcinoma 22Rv1, mean±SD
Procedure: as §1, §2

HT-29 = experiment: as above; assay type: cell-based; details: Homo sapiens, Colorectal adenocarcinoma HT-29, mean±SD
Procedure: as §1, §2

MDA-MB-231 = experiment: as above; assay type: cell-based; details: Homo sapiens, Breast adenocarcinoma MDA-MB-231, mean±SD
Procedure: as §1, §2

PC3-puro = experiment: as above; assay type: cell-based; details: Prostate adenocarcinoma PC3-puro, mean±SD
Procedure: as §1, §2

SaOS-2-His273 = experiment: as above; assay type: cell-based; details: Osteosarcoma SaOS-2-His273, mean±SD
Procedure: as §1, §2

KBM3 = experiment: as above; assay type: cell-based; details: Acute Myelomonocytic Leukaemia KBM3, mean±SD
Procedure: as §1, §2

H1299-His175 = experiment: as above; assay type: cell-based; details: Non-small cell lung carcinoma H1299-His175, mean±SD
Procedure: as §1, §2

U-2OS = experiment: as above; assay type: cell-based; details: Homo sapiens, U2OS, Osteosarcoma U-2OS, mean±SD
Procedure: as §1, §2

MCF-7 = experiment: as above; assay type: cell-based; details: Homo sapiens, MCF7, Breast adenocarcinoma MCF-7, mean±SD
Procedure: as §1, §2

PC3-175 = experiment: as above; assay type: cell-based; details: Prostate adenocarcinoma PC3-175, mean±SD
Procedure: as §1, §2

H1299 = experiment: as above; assay type: cell-based; details: Homo sapiens, NCI-H1299, Non-small cell lung carcinoma H1299, mean±SD
Procedure: as §1, §2

BT-474 = experiment: as above; assay type: cell-based; details: Homo sapiens, Breast ductal carcinoma BT-474, mean±SD
Procedure: as §1, §2

[2] = Stability studies of APR-246 in an aqueous system at different pH; assay type: physicochemical
Procedure: Several aqueous formulations of APR-246 and of the hydrochloric acid addition salt of APR-246 were prepared and tested for stability.
The stability increases with decreased pH. To establish a suitable pH for APR-246 with respect to stability, studies with the drug substance in different solutions at different pH were performed.
(§3) HPLC—Chromatography was performed on an Agilent 1100/1200 series HPLC system using a Purospher Star RP-18e, 5 μm (250×4.6) mm Column at 20° C. Sample temperature was set to 5° C. by a thermostat. Detection was accomplished by means of a UV/VIS DAD detector at 210 nm. The flow rate was set to 1.0 mL/min and the injection volume was 10 μL. The mobile phase used was a gradient of phosphate buffer (A) in acetonitrile (B): 0-5 min: 90% A, 5-20 min: 70% A, 20-35 min: 20% A, 35-45 min: 90% A. The calibration was obtained using pure APR-246 standard solutions freshly prepared prior to analyses. Data acquisition was performed electronically. The method has been validated.

[3] = Infusion bag compatibility study; assay type: physicochemical
Procedure: as §3, with “validated. This example summarizes the results of a compatibility study of the APR-246 drug product (150 mg/mL stock solution) in six infusion bags, to confirm physical and chemical stability of the drug product in the NaCl solution and compatibility with infusion bags and tubing device material. The drug product should be diluted with sterile 0.9% NaCl solution for infusion to a total volume of 500 ml before administration. The duration of the study covers a period beyond finalisation of infusion to the patient. The study was designed for a worst case lowest dose of 0.15 mg/mL and for a worst case highest dose of 24 mg/mL. […]” for “validated.”

AML MV-4-11 cells = experiment: Hollow fiber in vivo mouse model; details: AML MV-4-11 cells in hollow fibers in mice; end of the experiment; by number
Procedure: Data is shown as mean±SEM (n=7-8).
Furthermore, in vivo experiments using the hollow fiber mouse model with 2-(hydroxymethyl)-2-(methoxymethyl)quinuclidin-3-one indicate that inventive compounds have a significant anti-leukemic effect. These experiments were performed using the hollow fiber in vivo mouse model (for a short description of the model, cf. the internet website http://dtp.nci.nih.gov/timeline/noflash/milestones/M13_hollow_fiber.htm).

[4] = Long term stability studies of APR-246 in aqueous system; assay type: physicochemical
Procedure: as §3, with “APR-246 stock solutions were manufactured at a concentration of about 150 mg/mL at pH 3.9. The finished product consisted of 21.5-22.0 mL of drug product aseptically filled into presterilized 50 mL glass vials. The manufacturing was in compliance with Good Manufacturing Practices regulations. […] HPLC—Chromatography” for “HPLC—Chromatography”

[5] = HPLC-UV before and after autoclaving of APR-246 solution; assay type: physicochemical; details: autoclaving at 121° C.
Procedure: as §3, with “validated. The APR-246 drug product was a sterile concentrate for solution for infusion. The solution was sterilised by filtration according to Ph Eur standard method and aseptically filled in vials.” for “validated.”

- solubility in water solutions [1]: readily soluble
- IC50 (SaOS-2): 27 ± 5 µM
- IC50 (22Rv1): 10 ± 0.6 µM
- IC50 (HT-29): 25 ± 5 µM
- IC50 (MDA-MB-231): 18 ± 5 µM
- IC50 (PC3-puro): 27 ± 3 µM
- IC50 (SaOS-2-His273): 14 ± 3 µM
- IC50 (KBM3): 7 ± 1 µM
- IC50 (H1299-His175): 14 ± 8 µM
- IC50 (U-2OS): 15 ± 4 µM
- IC50 (MCF-7): 15 ± 1 µM
- IC50 (PC3-175): 23 ± 7 µM
- IC50 (H1299): 16 ± 7 µM
- IC50 (BT-474): 3 ± 2 µM
- stability of formulations with pH above 6 ([2]; pH above 6, model systems of Table 3): stability problems
- degradation in aqueous solutions ([2]; room temperature and lower temperatures, regardless of the concentration profile): suffered from degradation
- stability in infusion bag over the range of the study ([3]; high concentration): satisfactory stability
- stability in infusion bag over the range of the study ([3]; low concentration): satisfactory stability
- long term stability in the inventive formulation ([4]; formulated for clinical use, about 150 mg/mL, pH 3.9): stable
- expected degradation on storage ([4]; over a period of two years, stored at 2-8° C.): no significant degradation
- degradation on autoclaving the solution in the final container [5]: degradation was too pronounced
Compound: COCC1(CO)C(=O)C2CCN1CC2 (stereo not shown) [APR-246, 2-(hydroxymethyl)-2-(methoxymethyl)quinuclidin-3-one]
- net growth of leukemic cells (AML MV-4-11 cells): about −25%
